Test results taken from patent US20090209528A1, “SUBSTITUTED TETRAHYDROISOQUINOLINE COMPOUND, THEIR PREPARATION AND USE IN MEDICAMENTS” (LABORATORIOS DEL DR. ESTEVE S.A., priority 2006, published 2009).
Where a name gives a salt, the structure may show the parent alone.

Molecular target: T1, 5HT6-human recombinant receptor (Homo sapiens, UniProt P50406)
T1 construct: purchased Receptor Biology; host or cells: HEK-293 cell membranes
Test: Binding to serotonin receptor 5-HT6 ([3H]-LSD displacement)
Details: radioligand [3H]-LSD 2.7 nM; for inhibition at 0.01 µM / inhibition at 0.1 µM: 1 h; for inhibition at 0.01 µM: compound at 10 nM; for inhibition at 0.1 µM: compound at 100 nM; for Ki: membranes of HEK-293 cells expressing the receptor, 60 min, 37° C.
Experimental: Cell membranes of HEK-293 cells expressing the 5HT6-human recombinant receptor were supplied by Receptor Biology. In said membranes the receptor concentration is 2.18 pmol/mg protein and the protein concentration is 9.17 mg/ml. The experimental protocol follows the method of B. L. Roth et al. [B. L. Roth, S. C. Craigo, M. S. Choudhary, A. Uluer, F. J. Monsma, Y. Shen, H. Y. Meltzer, D. R. Sibley: Binding of Typical and Atypical Antipsychotic Agents to 5-Hydroxytryptamine-6 and Hydroxytryptamine-7 Receptors. The Journal of Pharmacology and Experimental Therapeutics, 1994, 268, 1403] with the following slight changes. The respective part of the literature description is hereby incorporated by reference and forms part of the disclosure.
The commercial membrane is diluted (1:40 dilution) with the binding buffer: 50 mM Tris-HCl, 10 mM MgCl2, 0.5 mM EDTA (pH 7.4). The radioligand used is [^3H]-LSD at a concentration of 2.7 nM with a final volume of 200 μl. Incubation is initiated by adding 100 μl of membrane suspension, (≈22.9 μg membrane protein), and is prolonged for 60 minutes at a temperature of 37° C. The incubation is ended by fast filtration in a Brandel Cell Harvester through fiber glass filters made by Schleicher & Schuell GF 3362 pretreated with a solution of polyethylenimine at 0.5%. The filters are washed three times with three milliliters of buffer Tris-HCl 50 mM pH 7.4. The filters are transferred to flasks and 5 ml of Ecoscint H liquid scintillation cocktail are added to each flask. The flasks are allowed to reach equilibrium for several hours before counting with a Wallac Winspectral 1414 scintillation counter. Non-specific binding is determined in the presence of 100 μM of serotonin. Tests were made in triplicate. The inhibition constants (Ki, nM) were calculated by non-linear regression analysis using the program EBDA/LIGAND described in Munson and Rodbard, Analytical Biochemistry, 1980, 107, 220, the respective part of which is hereby incorporated by reference and forms part of the disclosure.

T1 sequence (P50406 whole entry): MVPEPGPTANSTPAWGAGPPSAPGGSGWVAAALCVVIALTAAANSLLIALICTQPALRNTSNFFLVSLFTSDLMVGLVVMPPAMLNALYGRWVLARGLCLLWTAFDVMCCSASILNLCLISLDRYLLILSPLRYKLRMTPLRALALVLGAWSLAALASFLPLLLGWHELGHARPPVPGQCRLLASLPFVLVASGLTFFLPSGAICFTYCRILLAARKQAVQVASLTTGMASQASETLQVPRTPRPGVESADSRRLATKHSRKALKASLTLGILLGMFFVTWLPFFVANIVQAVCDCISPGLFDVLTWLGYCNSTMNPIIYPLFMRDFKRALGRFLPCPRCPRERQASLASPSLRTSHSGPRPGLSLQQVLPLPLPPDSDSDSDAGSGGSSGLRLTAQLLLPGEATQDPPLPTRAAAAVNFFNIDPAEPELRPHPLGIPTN

Structure (SMILES) | inhibition at 0.01 µM [%] | inhibition at 0.1 µM [%] | Ki [nM]
O=S(=O)(Nc1ccc2c(c1)CCNC2)c1c(Cl)nc2sccn12 [Example 10, 6-Chloro-imidazo[2,1-b] thiazole-5-sulfonic acid (1,2,3,4,- tetrahydro-isoquinolin-6-yl)-amide hydrochloride] | 85.8 | 94.6 | 1.3 ± 0.12
Cc1c(S(=O)(=O)Nc2ccc3c(c2)CCN(C)C3)sc2ccc(Cl)cc12 [Example 5, 5-Chloro-3-methyl-benzo[b]thiophene-2-sulfonic acid (2-methyl-1,2,3,4-tetrahydro-isoquinolin-6-yl)-amide hydrochloride] | 25.9 | 76.3 | 79.8
O=S(=O)(Nc1ccc2c(c1)CCNC2)c1ccc2ccccc2c1 [Example 8, Naphthalene-2-sulfonic acid (1,2,3,4-tetrahydro-isoquinolin-6-yl)-amide hydrochloride] | 37.4 | 74.6 | 
Cc1ccc(S(=O)(=O)Nc2ccc3c(c2)CCN(C(=O)OC(C)(C)C)C3)c2ccccc12 [Example 15, 6-(4-Methyl-naphthalene-1-sulfonylamino)-3,4-dihydro-1H-isoquinoline-2-carboxylic acid tert-butyl ester] | -5 | 8.2 | 
CC(C)(C)OC(=O)N1CCc2cc(NS(=O)(=O)c3cccc4ccccc34)ccc2C1 [Example 13, 6-(Naphthalene-1-sulfonylamino)-3,4-dihydro-1H-isoquinoline-2-carboxylic acid tert-butyl ester] | 30.7 | 28.8 | 1.3
CN(c1ccc2c(c1)CC[N+](C)(C)C2)S(=O)(=O)c1cccc2ccccc12 [Example 2, 2,2-Dimethyl-6-[methyl-(naphthalene-1-sulfonyl)-amino]-1,2,3,4-tetrahydro isoquinolinium iodide] | 17 | 19.6 | 
CN1CCc2cc(NS(=O)(=O)c3c(Cl)nc4sccn34)ccc2C1 [Example 19, 6-Chloro-imidazo[2,1-b]thiazole-5-sulfonic acid (2-methyl-1,2,3,4tetrahydro-isoquinolin-6-yl)-amide hydrochloride] | 74.2 | 90 | 2.3 ± 0.2
Cc1c(S(=O)(=O)Nc2ccc3c(c2)CCNC3)sc2ccc(Cl)cc12 [Example 4, 5-Chloro-3-methyl-benzo[b]thiophene-2-sulfonic acid (1,2,3,4-tetrahydro-isoqui-nolin-6-yl)-amide hydrochloride] | 27.3 | 71.1 | 

Next, values leading:

inhibition at 0.01 µM [%] | inhibition at 0.1 µM [%] | Ki [nM] | Structure (SMILES)
65.7 | 85.1 | 39.7 ± 7.4 | O=S(=O)(Nc1ccc2c(c1)CNCC2)c1cccc2c(Cl)cccc12 [Example 154, 5-Chloro-naphthalene-1-sulfonic acid (1,2,3,4-tetrahydro-isoquinolin-7-yl)-amide Hydrochloride]
45.5 | 64.7 | 54.6 | O=S(=O)(Nc1ccc2c(c1)CNCC2)c1cccc2nonc12 [Example 72, Benzo[1,2,5]oxadiazole-4-sulfonic acid (1,2,3,4-tetrahydro-isoquinolin-7-yl)-amide hydrochloride]
77.5 | 85.8 | 2.1 | O=S(=O)(Nc1ccc2c(c1)CNCC2)c1csc2ccccc12 [Example 78, Benzo[b]thiophene-3-sulfonic acid (1,2,3,4-tetrahydro-isoquinolin-7-yl)-amide hydrochloride]
53.6 | 86.8 | 12.6 ± 1.1 | O=S(=O)(Nc1ccc2c(c1)CCNC2)c1cc2ccccc2s1 [Example 24, Benzo[b]thiophene-2-sulfonic acid (1,2,3,4-tetrahydro-isoquinolin-6-yl)-amide hydrochloride]
70 | 83.6 | 6.5 ± 0.5 | O=S(=O)(Nc1ccc2c(c1)CNCC2)c1ccc(F)c2ccccc12 [Example 80, 4-Fluoro-naphthalene-1-sulfonic acid (1,2,3,4-tetrahydro-isoquinolin-7-yl)-amide hydrochloride]
